Test system: human CRHR1
Assay: CRH-induced luciferase reporter blocking in CHO-CRE-hCRHR1 cells
Format: cell-based
Details: in words
Description: To generate a CHO-CRE-Luciferase Reporter stable cell line, a mixture of 2 million CHO-K1 cells with 10 μg of pGL4.29/luc2P/CRE/Hygro plasmid in 100 μl of Ingenio solution was transferred into electroporation cuvettes and subjected to 1 or 2 pulses using an Electro Cell Manipulator (950 uF and 120V). The processed cells were transferred into a 6-well plate with 2 mL of Dulbecco's Modified Eagle's Medium (DMEM)/F12 with 10% fetal bovine serum (FBS). After 24 hours, selection antibiotic hygromycin at 500 μg/ml was added to the cells. […] Using matrix dilution, the pool of CHO-CRE cells was subcloned into 96-well plates. Individual stable clones were harvested when selected colonies became obvious. Positive clones were validated using a series of diluted forskolin. Validated positive clones were frozen for the future use.
To create CHO-CRE-hCRHR1,-hCRHR2,-mCRHR1, and -mCRHR2 reporter cell lines, pcDNA3.1-hCRHR1,-hCRHR2,-mCRHR1, and -mCRHR2 were introduced into CHO-CRE cells established above by electroporation as described above. Selection antibiotics hygromycin at 500 μg/ml and G418 at 1,000 μg/ml were employed. […]
50 μl of 4× serially diluted antibodies was added (8 points, ¼ diluted by growth medium) to plates containing CHO-CRE-hCRHR1 cells, and 50 μl of 4×CRH (4× is 2 nM, final is 0.5 nM) was added. […] Plates were read in a luciferase plate reader (En Vision, PerkinElmer).

CCCCN(CC)c1nc(C)nc2c1c(C)c(C)n2-c1c(C)cc(C)cc1C [Antalarmin, N-butyl-N-ethyl-(2,5,6-trimethyl-7-(2,4,6-trimethylphenyl)-7H-pyrrolo (2,3-d)pyrimidin-4-yl)amine, reference compound]
blocking activity in human CRHR1 luciferase reporter assay (CRH-mediated luciferase expression): blocked
